Laboratory results reported in the OPERA property sets (Mansouri et al. 2018).

Compound CC(O)COC(C)C (configuration not stated) has a boiling point of 138 °C. CC(=O)N(C)C(C)=O showed a boiling point of 195 °C and a melting point of -25 °C. Compound CC(C)(C(=O)O)C(C)(C)C(=O)O has a melting point of 200 °C. Cc1ccc2c(c1)CC=C2 gave a boiling point of 207 °C. For Nc1nc2c(ncn2COCCO)c(=O)[nH]1, the melting point was 255 °C. In the case of CCCCCCCCCCCCN1CCCCCC1=O, the melting point is reported as -7 °C. Compound CCCCOC(=O)Nc1ccccc1 has a log10 Koc (L/kg) of 2.26. Cc1cn[nH]c1 showed a boiling point of 206 °C. In the case of c1ccc(Cc2c3ccccc3c(Cc3ccccc3)c3ccccc23)cc1, the melting point is reported as 246 °C. O=C(O)c1ccsc1 showed a melting point of 138 °C. In the case of OCC(F)(F)C(F)(F)F, the boiling point is reported as 82 °C, the log10 Henry constant (atm·m³/mol) is reported as -4.65 and the log10 vapour pressure (mmHg) is reported as 1.66. With CC(=O)CC(C)(C)O the boiling point was 168 °C, the log10 vapour pressure (mmHg) was 0.233 and the melting point was -44 °C. The ready biodegradability was “readily biodegradable”. Compound CCCCN(CCCC)C(C(N)=O)c1ccc(OC)cc1 (configuration not stated) has a melting point of 134 °C. Compound Cc1ccc2cc3c(ccc4ccccc43)c3c2c1CC3 has a log10 Koc (L/kg) of 6.1, a log10 vapour pressure (mmHg) of -7.37 and a melting point of 180 °C. For the same compound, the ready biodegradability was “not readily biodegradable”. Compound CC(C)(C)NSc1nc2ccccc2s1 has a log10 vapour pressure (mmHg) of -6.34. With NCCCNCCCCNCCCN the melting point was 29 °C. Compound O=C(c1ccc(Br)cc1)c1ccc(Br)cc1 has a boiling point of 395 °C and a melting point of 177 °C. In the case of CC(C)CCC(O)C(C)C (configuration not stated), the boiling point is reported as 175 °C. For Cc1ccc([N+](=O)[O-])cc1S(=O)(=O)O, the ready biodegradability was “not readily biodegradable”. In the case of Cc1cc(-c2cc(C)c(OCC3CO3)c(C)c2)cc(C)c1OCC1CO1 (configuration not stated), the ready biodegradability is reported as “not readily biodegradable”. With c1ccc(C2(c3ccccc3)CC2C2=NCCN2)cc1 (configuration not stated) the melting point was 104 °C. In the case of c1ccc(CCCC2CCCC2)cc1, the boiling point is reported as 272 °C. With Fc1ccc2ccccc2c1 the boiling point was 212 °C and the melting point was 61 °C. For O=S(=O)(O)C(F)(F)F, the boiling point was 166 °C and the log10 vapour pressure (mmHg) was -1. In the case of CCC/C=C/CCC, the boiling point is reported as 126 °C, the log10 vapour pressure (mmHg) is reported as 1.25 and the melting point is reported as -104 °C. For O=C(O)c1ccccn1, the melting point was 136 °C and the ready biodegradability was “readily biodegradable”. O=c1oc2ccccc2c(O)c1C1CCCc2ccccc21 (configuration not stated) showed a log10 vapour pressure (mmHg) of -10.2 and a melting point of 172 °C. In the case of CC(C)(C)CC(C)(C)c1ccc(OCCOCC[N+](C)(C)Cc2ccccc2)cc1, the ready biodegradability is reported as “not readily biodegradable”. SC1CCCC1 gave a boiling point of 132 °C and a log10 vapour pressure (mmHg) of 1.06. Compound COc1cc(OC)c2ccc(=O)oc2c1 has a melting point of 149 °C. With C#CC(=O)OC the boiling point was 104 °C. With O=P(O)(O)C(Cl)(Cl)P(=O)(O)O the melting point was 250 °C. O=P(O)(O)CN(CP(=O)(O)O)CP(=O)(O)O gave a boiling point of 480 °C and a log10 vapour pressure (mmHg) of -11.2. O=C1OCc2ccccc21 showed a boiling point of 290 °C, a log10 vapour pressure (mmHg) of -2.7 and a melting point of 75 °C. The ready biodegradability was “readily biodegradable”. CCCCCCC(C)OC(=O)COc1nc(F)c(Cl)c(N)c1Cl (configuration not stated) gave a log10 vapour pressure (mmHg) of -8 and a melting point of 59 °C. For Cc1nc(C(F)(F)F)c(C(O)=Nc2c(Br)cc(OC(F)(F)F)cc2Br)s1, the melting point was 178 °C. Cc1cccc(F)c1 gave a boiling point of 115 °C, a log10 vapour pressure (mmHg) of 1.34 and a melting point of -87 °C. In the case of CCNC, the boiling point is reported as 36.5 °C. In the case of CCC1(CC)C(=O)C=CNC1=O, the melting point is reported as 90.7 °C. In the case of C=CCOC(Cn1ccnc1)c1ccc(Cl)cc1Cl (configuration not stated), the boiling point is reported as 347 °C, the log10 Koc (L/kg) is reported as 3.73 and the log10 vapour pressure (mmHg) is reported as -5.92. For the same compound, the melting point was 52.7 °C. Brc1ccc2c(c1)Oc1cc(Br)ccc1O2 gave a log10 vapour pressure (mmHg) of -5.89 and a melting point of 145 °C. In the case of ClCC(Cl)C(Cl)Cl (configuration not stated), the boiling point is reported as 180 °C. Work on Clc1cccc(Cl)c1N=C1NCCN1 yielded a melting point of 130 °C. For CCC(=O)CCC(C)C, the boiling point was 164 °C. CC(C)OC(=O)C(C)O (configuration not stated) showed a boiling point of 167 °C. Work on COCCOC(=O)c1ccccc1C(=O)OCCOC yielded a boiling point of 340 °C and a melting point of -45 °C. Oc1ccc(N=Nc2ccccc2)c(O)c1 gave a melting point of 170 °C. Cc1ccc(I)cc1 showed a boiling point of 211 °C and a melting point of 36.5 °C. Compound CC(=O)OC(OC(C)=O)c1ccccc1 has a boiling point of 220 °C and a melting point of 46 °C. Compound C=CC(C)=CC has a boiling point of 77 °C. In the case of CCCCCCCCCCCc1ccccc1, the boiling point is reported as 316 °C, the log10 vapour pressure (mmHg) is reported as -3.62 and the melting point is reported as -5 °C. With CCCCCCCCNCCCCCCCC the boiling point was 298 °C, the melting point was 35.5 °C and the ready biodegradability was “readily biodegradable”. Work on COc1ccc(CC(C)(C)C)cc1 yielded a boiling point of 238 °C. With COC(=O)c1ccc(C(=O)OC)o1 the melting point was 112 °C. With CCCCCCOC(=O)CCC the boiling point was 208 °C and the melting point was -78 °C. COc1ccccc1Oc1ccccc1OC showed a boiling point of 330 °C and a melting point of 79.5 °C. In the case of Cc1cccc(C)c1Cl, the boiling point is reported as 186 °C and the melting point is reported as -35 °C. In the case of NC(=O)c1c(Cl)cccc1Cl, the log10 Koc (L/kg) is reported as 0.53, the melting point is reported as 198 °C and the ready biodegradability is reported as “not readily biodegradable”. C[C@]12CC[C@H](O)C[C@H]1CC[C@@H]1[C@@H]2[C@H](O)C[C@]2(C)[C@@H](C3=CC(=O)OC3)CC[C@]12O showed a melting point of 280 °C. Compound CCCCCCCCCCCCCCCCCCCC1CCCCC1 has a boiling point of 420 °C and a melting point of 45 °C. Work on NC[C@H]1O[C@H](O[C@H]2[C@H](O[C@@H]3O[C@H](CO)[C@@H](O)[C@H]3O)C(O)[C@H](N)C[C@@H]2N)[C@H](N)[C@@H](O)[C@@H]1O (some centres not stated) yielded a melting point of 194 °C. With O=[N+]([O-])c1ccc(N=Nc2ccc(N(CCO)CCO)cc2Cl)cc1 the melting point was 190 °C. Brc1cccc2ccccc12 gave a boiling point of 281 °C, a log10 vapour pressure (mmHg) of -2.01 and a melting point of -1.8 °C. In the case of CCCCC(CCCC)CCCC, the boiling point is reported as 218 °C.
